Source: article PMC12456999, “Sulfonyl Homoserine Lactones Are Tunable Probes to Inhibit the Quorum Sensing Receptor RhlR and Reduce Swarming Motility in Pseudomonas aeruginosa” (ACS Infectious Diseases, 2025)
pIC50: −log10 of the molar value. Read-outs that look alike come from different tables or passages of the source. Marks after values point to notes of the source that are not given here.

Target: T1, RhlR (Pseudomonas aeruginosa, UniProt P54292)
T1 construct: expressed in transfected cells; host or cells: E. coli JLD271 (K-12 ΔlacX74 sdiA271::Cam) carrying pJN105-R2 (RhlR expression) and pSC11-rhlI (rhlI'-lacZ reporter)
Assay: E. coli (JLD271) RhlR reporter antagonism assay, in competition with BHL
Assay type: cell-based
Conditions: for max. RhlR inhibition (%): BHL at 10 μM set to 0%, media control set to 100%
Description: To start, the sulfonyl HLs were evaluated for their ability to antagonize RhlR using a previously described E. coli strain (JLD271) harboring a RhlR expression plasmid and a rhlI reporter plasmid. This E. coli reporter produces RhlR, and protein activity in the presence of an added small molecule can be measured via the production of β-galactosidase as quantified via luminescence (see Methods). Compounds were screened in competition against RhlR’s native ligand, BHL (at its EC50 value in this strain, 10 μM), over a range of concentrations to generate antagonism dose–response curves (see Supporting Information) and calculate IC50 values (listed in Table ). A small set of compounds was also screened for RhlR agonism in the E. coli reporter; the agonism assay format was identical to the antagonism assay, except no BHL was added.
RhlR activity in E. coli strain JLD271 (ΔsdiA) was measured via a β-galactosidase reporter (rhI-lacZ) using the Promega Beta-Glo Assay System as previously described. RhlR activity in P. aeruginosa PA14 (ΔrhlIΔlasI) was measured via a GFP reporter (rhlA-gfp). […] See Supporting Information for both reporter protocols.
Supporting Information — Aguirre-Figueroa et al.
E. coli and P. aeruginosa RhlR reporter assay protocols.
E. coli RhlR reporter assay. RhlR activity in E. coli strain JLD271 (ΔsdiA) was measured via a β-galactosidase reporter using the Promega Beta-Glo® Assay System as previously described.10 A schematic of the reporter plasmids and assay protocol is shown in Scheme S1. Briefly, a single colony of E. coli JLD271 harboring the RhlR expression plasmid pJN105-R and the rhlI-lacZ transcriptional fusion reporter pSC11-R (Table S1) was grown in LB medium with 100 μg/mL ampicillin and 10 μg/mL gentamicin overnight (~16 h). The culture was diluted 1:10 in fresh LB medium and grown to an OD600 = 0.25 (0.23–0.28) (~0.5 h). Arabinose was added to a final concentration of 4 mg/mL to induce the expression of pJN105-R. Aliquots (2 μL) of compound DMSO stock solution or serial dilution were added to the inner wells (i.e., non-periphery rows) of a 96-well microtiter plate. To six inner wells, DMSO alone (vehicle) was added as a negative control. For agonism assays, BHL was added to six inner wells as a positive control (to achieve 1 mM). For antagonism assays, BHL was added to six inner wells as a positive control and to all of the other sample wells except for the vehicle control wells (to achieve 10 μM ). Subculture (198 μL) was then dispensed into each inner well. To the outer (periphery) wells, 200 μL of water were added to maintain humidity during incubation. Plates were then incubated for 4 h (shaking) at 37 °C.
Scheme S1. Schematic of E. coli reporter plasmids and assay. (A) Representation of plasmids used in the heterologous reporter system. (B) General reporter assay workflow. BioRender used in […]
After the incubation period, the OD600 of each well was measured using a plate reader. Cell dilution plates were prepared by transferring 10 μL from the incubated culture plate wells to a fresh 96-well plate and adding 90 μL of 18 MΩ water to each well. Next, 10 μL aliquots of diluted Beta-Glo® reagent (1:2 with 18 MΩ water) were added to each well of a white 384-well microtiter plate, followed by 10 μL of culture from each well of the dilution plate. The 384-well plate was incubated (without shaking; i.e., static) for 30 min at 30 °C. After incubation, luminescence of each well was measured using a plate reader. To determine levels of RhlR activity, raw luminescence was divided by OD600 to correct for growth variation and then normalized to the negative (0%) and positive (100%) control wells.
Dose-response reporter assay data for compounds in the E. coli RhlR reporter.
Dose-response curves for RhlR antagonism by compounds against 10 μM BHL using the E. coli JLD271 RhlR reporter are provided below. Compound names are indicated on the x-axis of each plot.
All assays performed in triplicate as at least three separate biological replicates. […]

[1] = IC50, E. coli JLD271 RhlR reporter, against 10 μM BHL
[2] = E. coli JLD271 RhlR reporter, against 10 μM BHL
[3] = read-out: inhibitory potency on average (74, 75 and 18), average over the C4, C5 and C6 ASHLs, E. coli RhlR reporter

T1 sequence (P54292 whole entry): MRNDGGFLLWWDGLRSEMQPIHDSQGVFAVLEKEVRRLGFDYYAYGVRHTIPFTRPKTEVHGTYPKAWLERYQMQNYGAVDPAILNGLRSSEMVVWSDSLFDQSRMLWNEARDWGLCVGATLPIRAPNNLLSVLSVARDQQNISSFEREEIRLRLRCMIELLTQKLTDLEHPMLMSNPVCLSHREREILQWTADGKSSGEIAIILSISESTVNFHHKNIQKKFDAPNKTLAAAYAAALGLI

Row | Compound | max. RhlR inhibition (%) (E. coli RhlR reporter) | pIC50 [1] | also measured
1 | Cc1ccc(CS(=O)(=O)N[C@H]2CCOC2=O)cc1 [Compound 13, 4-Me BnSHL] | 90% | 3.04 | fold less potent than parent 4-Me PHL (E. coli RhlR reporter IC50, comparator printed as 19): ~170 fold
2 | O=C1OCC[C@@H]1NS(=O)(=O)Cc1ccc([N+](=O)[O-])cc1 [Compound 16, 4-NO2 BnSHL] | 97% | 2.89 | –
3 | CCCCCCS(=O)(=O)N[C@H]1CCOC1=O [Compound 18] | 77% | – | pIC50 [2]: 4.44; pIC50 [3]: ~4.55
4 | O=C1OCC[C@@H]1NS(=O)(=O)Cc1ccc(Br)cc1 [Compound 19, 4-Br BnSHL] | 77% | 3.46 | fold more potent in RhlR than 13 or 16 (E. coli RhlR reporter IC50): approximately 3 fold
5 | O=C1OCC[C@@H]1NS(=O)(=O)Cc1ccc(Cl)cc1 [Compound 21, 4-Cl BnSHL] | 99% | 3.66 | fold more potent in RhlR than 13 or 16 (E. coli RhlR reporter IC50): approximately 3 fold
6 | O=C1OCC[C@@H]1NS(=O)(=O)Cc1ccc(F)cc1 [Compound 22, 4-F BnSHL] | 94% | 3.69 | fold more potent in RhlR than 13 or 16 (E. coli RhlR reporter IC50): approximately 3 fold
7 | O=C1OCC[C@@H]1NS(=O)(=O)c1ccc(Cl)cc1Cl [Compound 24, 2,4-di-Cl-BSHL] | 99% | 2.80 | –
8 | O=C1OCC[C@@H]1NS(=O)(=O)c1cccc(Cl)c1 [Compound 28, 3-chloro-BSHL] | 97% | 3.84 | fold more potent than 26 and 27 (E. coli RhlR reporter IC50): 3 fold
9 | O=C1OCC[C@@H]1NS(=O)(=O)c1ccc(I)cc1 [Compound 36] | 99% | 3.53 | –
10 | O=C1OCC[C@@H]1NS(=O)(=O)c1ccc(C(F)(F)F)cc1 [Compound 37] | 99% | 3.48 | –
11 | O=C1OCC[C@@H]1NS(=O)(=O)c1cccc(Cl)c1Cl [Compound 42, 2,3-di-Cl BSHL] | 95% | 4.17 | fold lower IC50 value than 3-Cl BSHL (28) (E. coli RhlR reporter IC50): over 2 fold
12 | O=C1OCC[C@@H]1NS(=O)(=O)Cc1ccc(Cl)c(Cl)c1 [Compound 44, 3,4-di-Cl BnSHL] | 82% | 3.69 | –
13 | O=C1OCC[C@@H]1NS(=O)(=O)c1ccc(Cl)c(Cl)c1Cl [Compound 45, 2,3,4-tri-Cl BSHL] | 80% | 2.99 | reduction of potency relative to 3,4-Cl BSHL (43) (E. coli RhlR reporter IC50): at least 2 orders of magnitude
14 | COc1cccc(S(=O)(=O)N[C@H]2CCOC2=O)c1 [Compound 48] | 88% | 3.68 | –
15 | O=C1OCC[C@H]1NS(=O)(=O)c1ccc(Cl)c(Cl)c1 [Compound 55, 3,4-di-Cl BSHL] | 99% | 3.71 | –
16 | O=C1OCC[C@@H]1NS(=O)(=O)c1ccc(Cl)c(C(F)(F)F)c1 [Compound 60] | 90% | 4.03 | –
17 | O=C1OCC[C@@H]1NS(=O)(=O)c1ccc(F)c([N+](=O)[O-])c1 [Compound 71, 3-NO2,4-F BSHL] | 62% | 3.59 | –
18 | CCCS(=O)(=O)N[C@H]1CCOC1=O [Compound 72, C3-AHSL] | 45 ^f % | – | activity profile in RhlR (E. coli RhlR reporter dose-response curves): weak partial agonist
19 | O=C1OCC[C@@H]1NS(=O)(=O)c1ccc(Br)c(Cl)c1 [Compound 73, 3-Cl, 4-Br BSHL] | 98% | 3.93 | fold less potent than 43 (E. coli RhlR reporter IC50): over 2 fold
20 | CCCCS(=O)(=O)N[C@H]1CCOC1=O [Compound 74] | 70% | – | pIC50 [2]: 4.45; pIC50 [3]: ~4.55
21 | O=C1OCC[C@@H]1NS(=O)(=O)c1ccc(F)c(C(F)(F)F)c1 [Compound 76] | 84% | 4.16 | –
22 | O=C1OCC[C@@H]1NS(=O)(=O)c1cc(F)c(F)c(F)c1 [Compound 86, 3,4,5-F BSHL] | 80% | 4.61 | potency gain (33 vs 16, 43 vs 24, 86 vs 45, E. coli RhlR reporter IC50): ≤ 40 fold; fold higher potency relative to 3,4-di-Cl BSHL (43) (E. coli RhlR reporter IC50): over 2 fold
